Read-outs that look alike come from different tables or passages of the source.
Key:
HT1080 fibrosarcoma = HT1080 fibrosarcoma apoptosis time course, multiplexed NucLight Red (viability) and Caspase 3/7 Green (apoptosis) readouts with cell-by-cell analysis; format: cell-based
Experimental: Example implementations permit cell health to be tracked in sub-populations over time. […] Cell health was determined with multiplexed readouts of Incucyte® NucLight Red (nuclear viability marker) and non-perturbing Incucyte® Caspase 3/7 Green Reagent (apoptotic indicator). […] Values shown are the mean±SEM of 3 wells.
Cell health was determined with multiplexed readouts of Incucyte® NucLight Red (nuclear viability marker) and non-perturbing Incucyte® Caspase 3/7 Green Reagent (apoptotic indicator). […] Values shown are the mean±SEM of 3 wells.

A549 cells = test: A549 cell death concentration response, cells classed Dead or Live by Annexin V fluorescence or by label-free trained model; format: cell-based; settings: Homo sapiens, A549, 72 h, 0.1-10 μM, FIG. 16C
Experimental: The classification methods described herein facilitate classification of cells with an accuracy that approximates the accuracy of fluorophore-based methods. This allows for accurate classification without the expense, complexity, or experimental confounding effects that may be associated with the use of fluorescent labels. In an experiment, A549 cells were treated with increasing concentrations of the cytotoxic compound camptothecin (0.1-10 μM) for 72 h in the presence of Annexin V reagent. The cells were classed as Dead or Live based on fluorescence Annexin response (live cells=low fluorescence, dead cells=high fluorescence). The metric-based methods described herein were used to train a model using label-free features of dead (10 μM, 72 h) and live (vehicle, 0-72 h) cells.

[1] = HT1080, after treatment, FIG. 6C

| SMILES | apoptosis (HT1080 fibrosarcoma; HT1080, after treatment, FIG. 6G) | cell counts (HT1080 fibrosarcoma; HT1080, after treatment, FIG. 6G (data not shown)) | green fluorescence (late apoptosis) (HT1080 fibrosarcoma; HT1080, after 24 hours, FIG. 6C) | red and green fluorescence (early apoptosis) (HT1080 fibrosarcoma; [1]) | red population (NucLight Red, viable cells) (HT1080 fibrosarcoma; [1]) | EC50 (A549 cells; Annexin V fluorescence-based classification, read-out: Annexin V EC50 (% death)) [nM] | EC50 (A549 cells; label-free metric-based trained model classification, read-out: Label-free EC50 (% death)) [nM] |
| --- | --- | --- | --- | --- | --- | --- | --- |
| C[C@@H]1C[C@@H]([C@H](O)CC2CC(=O)NC(=O)C2)C(=O)[C@@H](C)C1 [CHX, cyclohexamide] | lack of apoptosis | decrease in cell counts |  |  |  |  |  |
| CC[C@@]1(O)C(=O)OCc2c1cc1n(c2=O)Cc2cc3ccccc3nc2-1 [camptothecin] |  |  | increasing green fluorescence after 24 hours indicating late apoptosis | increasing red and green fluorescence indicating early apoptosis | decrease in the red population | 660 | 530 |

— patent US12039796B2, “Method for classifying cells” (Sartorius BioAnalytical Instruments, Inc., priority 2019, dated 2024)
